Target: T1, adenosine A2A receptor (A2AR-YFP) (Homo sapiens, UniProt P29274)
T1 construct: gene ADORA2A; Human adenosine 2A receptor fused C-terminally to EYFP
Assay: fluorescence correlation spectroscopy titration on single native vesicles from HEK293T cells (KD =[…] on cells)
Assay type: binding

T1 sequence (P29274 whole entry, the tested form may be a part): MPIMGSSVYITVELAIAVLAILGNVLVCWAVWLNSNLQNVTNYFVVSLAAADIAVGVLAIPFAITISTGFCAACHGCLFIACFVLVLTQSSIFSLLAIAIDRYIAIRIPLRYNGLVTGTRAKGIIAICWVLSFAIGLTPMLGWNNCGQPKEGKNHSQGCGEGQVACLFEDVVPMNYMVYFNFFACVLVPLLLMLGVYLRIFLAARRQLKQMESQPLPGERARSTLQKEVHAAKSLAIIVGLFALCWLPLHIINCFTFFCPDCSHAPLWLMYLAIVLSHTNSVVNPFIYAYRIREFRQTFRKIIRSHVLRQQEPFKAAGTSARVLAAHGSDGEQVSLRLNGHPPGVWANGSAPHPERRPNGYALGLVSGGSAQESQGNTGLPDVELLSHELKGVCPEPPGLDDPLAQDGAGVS

## XAC-Atto655
  Kd: 67 ± 11 nM

Reference: PMC3733713, “Downscaling the Analysis of Complex Transmembrane Signaling Cascades to Closed Attoliter Volumes” (PLoS ONE, 2013)
